{"source": "patent US9278922B2", "about": "(ABBVIE INC., priority 2009, dated 2016)", "data": [{"tested_on": "HCV 1b-Con-1 replicon", "experiment": "HCV 1b-Con-1 replicon assay (luciferase reporter gene, HuH-7 cells)", "format": "cell-based, Hepatitis C virus (HCV) genotype 1b-Con1", "conditions": "Hepatitis C virus, Huh-7, luciferase reporter gene activity in the replicon, in the presence of 5% FBS", "units": {"EC50": "nM"}, "values": [{"smiles": "O=C(Nc1ccc(CN(Cc2ccc(NC(=O)[C@@H]3CCCN3C(=O)C(c3ccccc3)N3CC[C@@H](F)C3)cc2)c2ccc(F)cc2)cc1)[C@@H]1CCCN1C(=O)C(c1ccccc1)N1CC[C@@H](F)C1", "note": "(single isomer, unassigned) [Example 118]", "EC50": "1 to 10"}, {"smiles": "O=C(Nc1ccc(CN(Cc2ccc(NC(=O)[C@@H]3CCCN3C(=O)C(c3ccccc3)N3CC[C@H](F)C3)cc2)c2ccc(F)cc2)cc1)[C@@H]1CCCN1C(=O)C(c1ccccc1)N1CC[C@H](F)C1", "note": "(single isomer, unassigned) [Example 120]", "EC50": "< 1"}, {"smiles": "O=C(Nc1ccc(CN(Cc2ccc(NC(=O)[C@@H]3CCCN3C(=O)C(c3ccccc3)N3CCCC3=O)cc2)c2ccc(F)cc2)cc1)[C@@H]1CCCN1C(=O)C(c1ccccc1)N1CCCC1=O", "note": "(single isomer, unassigned) [Example 129, (2S ,2′S)-N,N′-{[(4-fluorophenyl)imino]bis(methanediylbenzene-4,1-diyl)}bis{1-[(2-oxopyrrolidin-1-yl)(phenyl)acetyl]pyrrolidine-2-carboxamide}]", "EC50": "1 to 10"}, {"smiles": "O=C(Nc1ccc(CN(Cc2ccc(NC(=O)[C@@H]3CCCN3C(=O)C(c3ccccc3)N3CCC(F)(F)CC3)cc2)c2ccc(F)cc2)cc1)[C@@H]1CCCN1C(=O)C(c1ccccc1)N1CCC(F)(F)CC1", "note": "(single isomer, unassigned) [Example 139]", "EC50": "1 to 10"}, {"smiles": "COC(=O)N[C@H](C(=O)N1CCC[C@H]1C(=O)Nc1ccc(CN(Cc2ccc(NC(=O)[C@@H]3CCCN3C(=O)[C@@H](NC(=O)OC)C(C)C)cc2)c2ccccc2)cc1)C(C)C", "note": "[Example 1]", "EC50": "< 1"}, {"smiles": "CN(C)[C@@H](C(=O)N1CCC[C@H]1C(=O)Nc1ccc(CN(Cc2ccc(NC(=O)[C@@H]3CCCN3C(=O)[C@@H](c3ccccc3)N(C)C)cc2)c2ccccc2)cc1)c1ccccc1", "note": "[Example 2]", "EC50": "< 1"}, {"smiles": "COC(=O)N[C@@H](C(=O)N1CCC[C@H]1C(=O)Nc1ccc(CN(Cc2ccc(NC(=O)[C@@H]3CCCN3C(=O)[C@H](NC(=O)OC)c3ccccc3)cc2)c2ccccc2)cc1)c1ccccc1", "note": "[Example 3]", "EC50": "< 1"}, {"smiles": "O=C(Nc1ccc(CN(Cc2ccc(NC(=O)[C@@H]3CCCN3C(=O)OCc3ccccc3)cc2)c2ccccc2)cc1)C1CCCN1C(=O)OCc1ccccc1", "note": "(stereo partly drawn) [Example 4, (2S,2′S)-benzyl 2,2′-(4,4′-(phenylazanediyl)bis(methylene)bis(4,1-phenylene)bis(azanediyl))bis(oxomethylene)dipyrrolidine-1-carboxylate]", "EC50": "10 to 100"}, {"smiles": "COC(=O)N[C@@H](C)C(=O)N1CCC[C@H]1C(=O)Nc1ccc(CN(Cc2ccc(NC(=O)[C@@H]3CCCN3C(=O)[C@H](C)NC(=O)OC)cc2)c2ccccc2)cc1", "note": "[Example 8, Dimethyl (2S,2′S)-1,1′-((2S,2′S)-2,2′-(4,4′-(phenylazanediyl)bis(methylene)bis(4,1-phenylene)bis(azanediyl))bis(oxomethylene)bis(pyrrolidine-2,1-diyl))bis(1-oxopropane-2,1-diyl)dicarbamate]", "EC50": "1 to 10"}, {"smiles": "CC[C@H](C)[C@H](NC(=O)OC)C(=O)N1CCC[C@H]1C(=O)Nc1ccc(CN(Cc2ccc(NC(=O)[C@@H]3CCCN3C(=O)[C@@H](NC(=O)OC)[C@@H](C)CC)cc2)c2ccccc2)cc1", "note": "[Example 9]", "EC50": "< 1"}, {"smiles": "COC(=O)N[C@H](C(=O)N1CCC[C@H]1C(=O)Nc1ccc(CN(Cc2ccc(NC(=O)[C@@H]3CCCN3C(=O)[C@@H](c3ccccc3)N(C)C)cc2)c2ccccc2)cc1)C(C)(C)C", "note": "[Example 10, Methyl (S)-1-((S)-2-(4-(((4-((S)-1-((R)-2-(dimethylamino)-2-phenylacetyl)pyrrolidine-2-carboxamido)benzyl)(phenyl)amino)methyl)phenylcarbamoyl)pyrrolidin-1-yl)-3,3-dimethyl-1-oxobutan-2-ylcarbamate]", "EC50": "< 1"}, {"smiles": "COC(=O)N[C@H](C(=O)N1CCC[C@H]1C(=O)Nc1ccc(CN(Cc2ccc(NC(=O)[C@@H]3CCCN3C(=O)[C@@H](NC(=O)OC)c3ccccc3)cc2)c2ccccc2)cc1)c1ccccc1", "note": "[Example 11, Dimethyl (1S,1′S)-2,2′-((2S,2′S)-2,2′-(4,4′-(phenylazanediyl)bis(methylene)bis(4,1-phenylene)bis(azanediyl))bis(oxomethylene)bis(pyrrolidine-2,1-diyl))bis(2-oxo-1-phenylethane-2,1-diyl)dicarbamate]", "EC50": "< 1"}, {"smiles": "CCN(CC)[C@@H](C(=O)N1CCC[C@H]1C(=O)Nc1ccc(CN(Cc2ccc(NC(=O)[C@@H]3CCCN3C(=O)[C@@H](NC(=O)OC)C(C)(C)C)cc2)c2ccccc2)cc1)c1ccccc1", "note": "[Example 12, Methyl (S)-1-((S)-2-(4-(((4-((S)-1-((R)-2-(diethylamino)-2-phenylacetyl)pyrrolidine-2-carboxamido)benzyl)(phenyl)amino)methyl)phenylcarbamoyl)pyrrolidin-1-yl)-3,3-dimethyl-1-oxobutan-2-ylcarbamate]", "EC50": "< 1"}, {"smiles": "COC(=O)N[C@H](C(=O)N1CCC[C@H]1C(=O)Nc1ccc(CN(Cc2ccc(NC(=O)[C@@H]3CCCN3C(=O)[C@@H](NC(=O)OC)C(C)(C)C)cc2)c2ccc(F)cc2)cc1)C(C)(C)C", "note": "[Example 13, Dimethyl (2S,2′S)-1,1′-((2S,2′S)-2,2′-(4,4′-(4-fluorophenylazanediyl)bis(methylene)bis(4,1-phenylene)bis(azanediyl))bis(oxomethylene)bis(pyrrolidine-2,1-diyl))bis(3,3-dimethyl-1-oxobutane-2,1-diyl)dicarbamate]", "EC50": "< 1"}, {"smiles": "COC(=O)N[C@H](C(=O)N1CCC[C@H]1C(=O)Nc1ccc(CN(Cc2ccc(NC(=O)[C@@H]3CCCN3C(=O)[C@@H](NC(=O)OC)C(C)C)cc2)c2ccc(F)cc2)cc1)C(C)C", "note": "[Example 14]", "EC50": "< 1"}, {"smiles": "COC(=O)N[C@@H](C)C(=O)N1CCC[C@H]1C(=O)Nc1ccc(CN(Cc2ccc(NC(=O)[C@@H]3CCCN3C(=O)[C@H](C)NC(=O)OC)cc2)c2ccc(F)cc2)cc1", "note": "[Example 15]", "EC50": "1 to 10"}, {"smiles": "COC(=O)N[C@H](C)C(=O)N1CCC[C@H]1C(=O)Nc1ccc(CN(Cc2ccc(NC(=O)[C@@H]3CCCN3C(=O)[C@@H](C)NC(=O)OC)cc2)c2ccc(F)cc2)cc1", "note": "[Example 16]", "EC50": "10 to 100"}, {"smiles": "COC(=O)N[C@H](C(=O)N1CCC[C@H]1c1nc2cc(CN(Cc3ccc4[nH]c([C@@H]5CCCN5C(=O)[C@@H](NC(=O)OC)C(C)C)nc4c3)c3ccccc3)ccc2[nH]1)C(C)C", "note": "[Example 17, Dimethyl (2S,2′S)-1,1′-((2S,2′S)-2,2′-(5,5′-(phenylazanediyl)bis(methylene)bis(1H-benzo[d]imidazole-5,2-diyl))bis(pyrrolidine-2,1-diyl))bis(3-methyl-1-oxobutane-2,1-diyl)dicarbamate]", "EC50": "< 1"}, {"smiles": "CN(C)[C@@H](C(=O)N1CCC[C@H]1c1nc2cc(CN(Cc3ccc4[nH]c([C@@H]5CCCN5C(=O)[C@@H](c5ccccc5)N(C)C)nc4c3)c3ccccc3)ccc2[nH]1)c1ccccc1", "note": "[Example 18, (2R,2′R)-1,1′-((2S,2′S)-2,2′-(5,5′-(phenylazanediyl)bis(methylene)bis(1H-benzo[d]imidazole-5,2-diyl))bis(pyrrolidine-2,1-diyl))bis(2-(dimethylamino)-2-phenylethanone)]", "EC50": "< 1"}, {"smiles": "COC(=O)N[C@H](C(=O)N1CCC[C@H]1C(=O)Nc1ccc(CN(Cc2ccc(NC(=O)[C@@H]3CCCN3C(=O)[C@@H](NC(=O)OC)C(C)(C)C)cc2)c2nccs2)cc1)C(C)(C)C", "note": "[Example 19]", "EC50": "10 to 100"}, {"smiles": "COC(=O)N[C@H](C(=O)N1CCC[C@H]1C(=O)Nc1ccc(CN(Cc2ccc3[nH]c([C@@H]4CCCN4C(=O)[C@@H](NC(=O)OC)C(C)C)nc3c2)c2ccccc2)cc1)C(C)C", "note": "[Example 20]", "EC50": "< 1"}, {"smiles": "CCN(CC)[C@@H](C(=O)N1CCC[C@H]1C(=O)Nc1ccc(CN(Cc2ccc(NC(=O)[C@@H]3CCCN3C(=O)[C@@H](c3ccccc3)N(CC)CC)cc2)c2ccccc2)cc1)c1ccccc1", "note": "[Example 21, (R,2S,2′S)-N,N′-(4,4′-(phenylazanediyl)bis(methylene)bis(4,1-phenylene))bis(1-((R)-2-(diethylamino)-2-phenylacetyl)pyrrolidine-2-carboxamide)]", "EC50": "< 1"}, {"smiles": "COC(=O)N[C@H](C(=O)N1CCC[C@H]1C(=O)Nc1ccc(CN(Cc2ccc(NC(=O)[C@@H]3CCCN3C(=O)[C@@H](NC(=O)OC)C(C)C)cc2)C(C)C)cc1)C(C)C", "note": "[Example 24, dimethyl ([(1-methylethyl)imino]bis{methanediylbenzene-4,1-diylcarbamoyl(2S)pyrrolidine-2,1-diyl[(2S)-3-methyl-1-oxobutane-1,2-diyl]})biscarbamate]", "EC50": "1 to 10"}, {"smiles": "COC(=O)N[C@H](C(=O)N1CCC[C@H]1C(=O)Nc1ccc(CN(Cc2ccc(NC(=O)[C@@H]3CCCN3C(=O)[C@@H](NC(=O)OC)[C@@H](C)O)cc2)c2ccccc2)cc1)[C@@H](C)O", "note": "[Example 25, dimethyl[(phenylimino)bis{methanediylbenzene-4,1-diylcarbamoyl(2S)pyrrolidine-2,1-diyl[(2S,3R)-3-hydroxy-1-oxobutane-1,2-diyl]}]biscarbamate]", "EC50": "1 to 10"}, {"smiles": "COC(=O)N[C@@H](CO)C(=O)N1CCC[C@H]1C(=O)Nc1ccc(CN(Cc2ccc(NC(=O)[C@@H]3CCCN3C(=O)[C@H](CO)NC(=O)OC)cc2)c2ccccc2)cc1", "note": "[Example 26, dimethyl[(phenylimino)bis{methanediylbenzene-4,1-diylcarbamoyl(2S)pyrrolidine-2,1-diyl[(2S)-3-hydroxy-1-oxopropane-1,2-diyl]}]biscarbamate]", "EC50": "10 to 100"}, {"smiles": "COC(=O)N[C@H](C(=O)N1CCC[C@H]1C(=O)Nc1ccc(CN(Cc2ccc(NC(=O)[C@@H]3CCCN3C(=O)[C@@H](NC(=O)OC)C(C)C)cc2)C2CCCC2)cc1)C(C)C", "note": "[Example 27, dimethyl[(cyclopentylimino)bis{methanediylbenzene-4,1-diylcarbamoyl(2S)pyrrolidine-2,1-diyl[(2S)-3-methyl-1-oxobutane-1,2-diyl]}]biscarbamate]", "EC50": "10 to 100"}, {"smiles": "COC(=O)N[C@H](C(=O)N1CCC[C@H]1C(=O)Nc1ccc(CN(Cc2ccc(NC(=O)[C@@H]3CCCN3C(=O)[C@@H](NC(=O)OC)C(C)(C)O)cc2)c2ccccc2)cc1)C(C)(C)O", "note": "[Example 28, dimethyl [(phenylimino)bis{methanediylbenzene-4,1-diylcarbamoyl(2S)pyrrolidine-2,1-diyl[(2S)-3-hydroxy-3-methyl-1-oxobutane-1,2-diyl]}]biscarbamate]", "EC50": "< 1"}]}]}
